Experiments:
[1] = system: Mastocytoma P815; assay: Growth inhibition of mastocytoma P815 cocultured with treated mouse peritoneal macrophages (tritiated thymidine incorporation); type: cell-based; details: MTP-chol in liposomes at 2 μg/ml (400 μg liposomes/ml) or 1 μg/ml (200 μg liposomes/ml) vs 50 μg of MDP
Experimental: I. The microphages used are peritoneal macrophages from eight week old female BDF 1 mice. They have been brought into the peritoneal cavity by i.p. injection 4 days earlier, of 1.5 ml of a sterile inflammatory irritant, thioglycollate medium (marketed by Institut Pasteur Production).
The peritoneal cells are obtained by peritoneal washing with 5 ml of MEM medium (see below) of mice previously killed by cervical dislocation and bled by decapitation.
After centrifugation, they are replaced in suspension in MEM (Minimal Essential Medium, Institut Pasteur Production) supplemented with 5% of inactivated fetal calf serum (gibco), and antibiotics (penicillin+streptomycine).
The macrophages are identified by microscope by their aptitude to endocyte neutral red and counted on an aliquot portion.
The suspension is then adjusted to 2.10^6 macrophages/ml and distributed in the proportion of 250 μl per cup in a Microtest II (NUNCLON) plastic box of 96 cups.
The disk is placed in an oven (HERAEUS) at 37° C. in an air atmosphere+5% water-saturated CO2. […]
The portion of filter corresponding to each cup is cut out and counted in the presence of scintillation liquid (LIPOLUMAC, LUMA) in a scintillation counter (RACKBETA, LKB). […]
The antitumoral activity of the macrophages is expressed as a percentage of growth inhibition: (%IC) [formula] […]

[2] = system: B16-BL6 melanoma; assay: Cytotoxicity against B16-BL6 melanoma cocultured with treated rat alveolar macrophages (125I-deoxyuridine remaining); type: cell-based
Experimental: The macrophages used are alveolar macrophages of F344 male rats of 200 gm. The macrophages are obtained by washing the lung with 9×5 ml of PBS medium of DULBECCO without calcium or magnesium, of rats anesthesitized with 0.5 ml 5% Nembutal ip (Laboratoires Abbott S.A.) and bled by incision of an artery of the kidney. After centrifugation, they are resuspended in MEM (Minimal Essential Medium) supplemented with 5% of inactivated fetal calf serum (Gibco), glutamine, sodium pyruvate, non-essential amino acids, vitamins and antibiotics (penicillin and streptomycine).
The suspension is then adjusted to 5×10^5 macrophages/ml and redistributed in the proportion of 100 μl per cup in a TITERTEK plastic dish of 96 cups. After incubation for 4 hours, the macrophages have adhered; the non-adherent cells (less than 5%) are removed by aspiration of the medium and two washings with incubation medium. […]
After 96 hours of coculture, the dead cells are removed by 3 washings of each cup with 200 μl of PBS of DULBECCO medium. […] The radioactivity remaining in each cup is counted in a gamma counter (BECKMAN GAMMA 4000). […]
the antitumoral activity of the macrophages is expressed as a cytotoxicity percentage (%CYT): [formula] where T=^125 I-deoxyuridine remaining in the untreated macrophages+tumoral cells coculture; and […]

[3] = system: influenza virus A/PR 8; assay: Anti-viral activity in experimental influenza infection of Swiss mice; type: in vivo, mouse
Excerpt: The anti-viral activity has been evaluated in an experimental infection system. Swiss mice aged 10 weeks were used. The virus chosen was that of the influenza virus A/PR 8.
At day D-0, the animals received by the intra-nasal route 50 microliters of a viral dilution at 1/10^4.
An anti-viral activity of the tested compound has been found both in preventive and curative experiments (prevention). The administration of one mg of compound by the intra-nasal route one day prior to the viral dilution produced the survival of 67% of the animals.
When the compounds were used at the curative level, the best results were obtained when 0.5 mg of the compound was administered sub-cutaneously one day after the administration of the viral dilution. 71% of the animals survived.

CC(=O)N[C@@H]1[C@@H](OC(C)C(=O)N[C@@H](C)C(=O)N[C@H](CCC(=O)N[C@@H](C)C(=O)O[C@H]2CC[C@@]3(C)C(=CC[C@H]4[C@@H]5CC[C@H]([C@H](C)CCCC(C)C)[C@@]5(C)CC[C@@H]43)C2)C(N)=O)[C@H](O)[C@@H](CO)O[C@@H]1O (stereo partly drawn) [MTP-chol, N-acetyl-muramyl-L-alanyl-D-isoglutaminyl-L-alanyl-cholsteryl ester]
activation of macrophages compared with MDP [1]: activates the macrophages significantly more than 50 μg of MDP does | concentration of MTP-chol in the liposomes that significantly activates the macrophages ([2]; 40 μg phospholipid/ml): > 0.0017 µg/mL | concentration of MTP-chol in the liposomes that significantly activates the macrophages ([2]; 400 μg phospholipid/ml): more than 0.017 μg/ml | animals survived ([3]; curative: 0.5 mg sub-cutaneously one day after the viral dilution): 71% | survival of the animals ([3]; preventive: one mg intra-nasal one day prior to the viral dilution): 67%
